According to PMC8067754, “Active Transport of Hepatotoxic Pyrrolizidine Alkaloids in HepaRG Cells” (International Journal of Molecular Sciences, 2021):
Values joined by “and” are separate entries in the source; they are usually repeats but may differ in a detail not shown here. Equal entries are not always repeated.

Legend:
HepaRG cells [1] = test: Time-dependent PA depletion and PANO formation in cell culture medium of HepaRG cells at 37 °C and 4 °C (LC-MS/MS)
Procedure: (§1) In order to measure time-dependent depletion of PA and PANO content in cell culture medium, cells were seeded at a density of 0.2 × 10^6 cells per well in a 6-well plate and cultivated as described in Section 4.2. After four weeks of cultivation, cells were adapted to serum-free medium and medium substituted with insulin, transferrin, selenium (ITS) serum extender (Capricorn Scientific, Ebsdorfergrund, Germany) 48 h prior to PA incubation for optimal LC-MS/MS measurements. […] Samples were taken after 2 h, 4 h, 8 h and 24 h.
(§2) Briefly, chromatographic separation of PA/PANO analytes was achieved on a 50 × 2.1 mm Kinetex ™ 2.6 μm CoreShell EVO C18 100 Å column protected by a SecurityGuard ™ ULTRA EVO C 18 2.1 mm guard column (both Phenomenex, Aschaffenburg, Germany) at a flow rate of 0.4 mL/min on a Shimadzu high performance liquid chromatography (HPLC) apparatus (LC-20AB, SIL-20AC HT, CTO-20AC, CBM-20A, Duisburg, Germany) coupled to an API4000 triple quadrupole MS (Sciex, Darmstadt, Germany). The following MS parameters were used for measurements in positive electrospray ionisation (ESI+) mode: ionisation voltage 2500 V, nebuliser gas 50 psi, heating gas 50 psi, curtain gas 30 psi, temperature 600 °C, collision gas level 7. The substance specific parameters are summarized in Kaltner et al. 2019 [79].

HepaRG cells [2] = test: PA and PANO content in cell culture medium of HepaRG cells upon pharmacological transporter inhibition (LC-MS/MS); assay type: in vitro ADME, human
Procedure: In the case of TEA, cells were pre-incubated 24 h prior to PA treatment. The inhibitors were applied anew at PA incubation.
as §1, §2

## C/C=C1/C[C@@H](C)[C@@](C)(O)C(=O)OCC2=CCN3CC[C@@H](OC1=O)[C@@H]23 [Senecionine, senecionine]
HepaRG cells [1]
  reduction of PA content in the supernatant: highest decline
  uptake and toxicity (grading): strong
HepaRG cells [1]; human
  PANO in medium, Mean [%]: 0%
  PANO in medium, single replicates (repl.): 0%
HepaRG cells [2]; 8h, no inhibitor, repl. 1-5
  PA content in medium, single replicates: 8.726%
HepaRG cells [2]; 8h, plus Ko143, repl. 1-3
  PA content in medium, single replicates: 4.478% and 4.105%
HepaRG cells [2]; no inhibitor, 0h
  PA in medium, Mean [%]: 100%
HepaRG cells [2]; no inhibitor, 4h
  PA in medium, Mean [%]: 25.6172%
  PA in medium, single replicates (repl.): 20.2703% and 36.4212% and 41.9726% and 18.235% and 11.1867%
HepaRG cells [2]; no inhibitor, 8h
  PA in medium, Mean [%]: 8.337%
  PA in medium, single replicates (repl.): 5.95% and 13.0309% and 15.415% and 3.983% and 3.308%
HepaRG cells [2]; no inhibitor, 24h
  PA in medium, Mean [%]: 0.1453%
  PA in medium, single replicates (repl.): 0% (3×) and 0.3901% and 0.3363%
HepaRG cells [2]; plus CsA, 0h
  PA in medium, Mean [%]: 100%
  PA in medium, single replicates (repl.): 100%
HepaRG cells [2]; plus CsA, 4h
  PA in medium, Mean [%]: 83.5787%
  PA in medium, single replicates (repl.): 100.41% and 74.0814%
HepaRG cells [2]; plus CsA, 8h
  PA in medium, Mean [%]: 79.3329%
  PA in medium, single replicates (repl.): 78.1367% and 71.9298%
HepaRG cells [2]; plus CsA, 24h
  PA in medium, Mean [%]: 63.0445%
  PA in medium, single replicates (repl.): 81.6295% and 67.7648% and 39.7392%
HepaRG cells [2]; plus Ko143, 0h
  PA in medium, Mean [%]: 100%
  PA in medium, single replicates (repl.): 100%
HepaRG cells [2]; plus Ko143, 4h
  PA in medium, Mean [%]: 27.3505%
  PA in medium, single replicates (repl.): 21.9905% and 15.6142% and 44.4468%
HepaRG cells [2]; plus Ko143, 8h
  PA in medium, Mean [%]: 9.179%
  PA in medium, single replicates (repl.): 5.449% and 3.069% and 19.0198%
HepaRG cells [2]; plus Ko143, 24h
  PA in medium, Mean [%]: 0.2576%
  PA in medium, single replicates (repl.): 0% (2×) and 0.7727%
HepaRG cells [2]; plus MK-571, 0h
  PA in medium, Mean [%]: 100%
HepaRG cells [2]; plus MK-571, 4h
  PA in medium, Mean [%]: 87.0627%
  PA in medium, single replicates (repl.): 81.9366% and 96.8826% and 82.369%
HepaRG cells [2]; plus MK-571, 8h
  PA in medium, Mean [%]: 64.688%
  PA in medium, single replicates (repl.): 76.7573% and 68.0778% and 49.229%
HepaRG cells [2]; plus MK-571, 24h
  PA in medium, Mean [%]: 22.3298%
  PA in medium, single replicates (repl.): 51.6203% and 9.723% and 5.646%
HepaRG cells [2]; plus Qu, 0h
  PA in medium, Mean [%]: 100%
  PA in medium, single replicates (repl.): 100%
HepaRG cells [2]; plus Qu, 4h
  PA in medium, single replicates (repl.): 89.6889% and 96.62%
HepaRG cells [2]; plus Qu, 8h
  PA in medium, single replicates (repl.): 89.9877% and 75.5125% and 84.2%
HepaRG cells [2]; plus Qu, 24h
  PA in medium, single replicates (repl.): 67.9609% and 61.3936% and 73.11%
HepaRG cells [2]; plus TEA, 0h
  PA in medium, Mean [%]: 100%
  PA in medium, single replicates (repl.): 100%
HepaRG cells [2]; plus TEA, 4h
  PA in medium, Mean [%]: 61.4268%
  PA in medium, single replicates (repl.): 53.1634% and 46.1792% and 84.938%
HepaRG cells [2]; plus TEA, 8h
  PA in medium, Mean [%]: 43.7039%
  PA in medium, single replicates (repl.): 34.8001% and 27.837%
HepaRG cells [2]; plus TEA, 24h
  PA in medium, Mean [%]: 19.1005%
  PA in medium, single replicates (repl.): 7.953% and 7.514% and 41.8346%
